According to patent US20260306460A1, “COMPOSITION FOR REMOVING AND INHIBITING SENESCENT CELLS, AND USES THEREOF” (LIFECEUTIX CO., LTD., priority 2023, published 2026):

Legend:
[1] = test system: bleomycin-induced pulmonary fibrosis mice; assay: Bleomycin-induced pulmonary fibrosis mice, Example 31, Table 56; assay type: in vivo, mouse; conditions: untreated = 100%
Summary of the method: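 After treatment with test compound or vehicle alone, lungs of bleomycin-induced pulmonary fibrosis mice were harvested. Total RNA extracted and gene expression quantified by qRT-PCR.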

[2] = test system: carbon tetrachloride-induced liver fibrosis mice; assay: Carbon tetrachloride-induced liver fibrosis mice, Example 31, Table 57; assay type: in vivo, mouse; conditions: CCl4-induced liver fibrosis mice, untreated = 100%
Summary of the method: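 Mice with induced hepatic fibrosis received either the test compound or, as controls, an equal volume of vehicle solution alone. Once dosing ended, liver tissue was harvested and total RNA was isolated. cDNA was synthesized from this RNA, and quantitative RT-PCR was run on it to measure hepatic mRNA levels of the fibrosis- and senescence-related genes.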

[3] = test system: naturally aged C57BL6J mice; assay: Lipofuscin staining in muscle of naturally aged mice, Example 21-4; assay type: in vivo, mouse; conditions: untreated aged = 100, LX-5701 360 mg/kg po, LX-2101 20 mg/kg ip, LX-2102 10 mg/kg ip, daily 21 days
Method: 22-month-old female C57BL6J mice (KRIBB Laboratory Animal Resource Center) were acclimated to the experimental environment for one week, after which the aged mice were randomly assigned to experimental and control groups. Eight-week-old, non-aged mice served as controls. LX-403 was mixed in a 10% ethanol solution of PEG400 and administered orally at a concentration of 25 mg/kg daily for 21 days, or administered to the skin, joints, or eyes at a concentration of 1 μM. LX-1801 was mixed in distilled water with 4% DMSO, 30% PEG300, and 5% Tween80 and administered to the skin, joints, or eyes at a concentration of 0.4 μM daily for 21 days. LX-2001 was mixed in PBS and administered to the skin, joints, or eyes at a concentration of […] daily for 21 days. LX-2002 was mixed in distilled water with 4% DMSO, 30% PEG300, and 5% Tween80 and administered to the skin, joints, or eyes at a concentration of 2 μM daily for 21 days. […] LX-2005 was mixed in distilled water with 4% DMSO, 30% PEG300, and 5% Tween80 and administered to the skin, joints, or eyes at a concentration of 90 μM daily for 21 days. LX-2007 was mixed in distilled water with 4% DMSO, 30% PEG300, and 5% Tween80 and administered to the skin, joints, or eyes at a concentration of 90 μM daily for 21 days. […] LX-3002 was mixed in distilled water with 4% DMSO, 30% PEG300, and 5% Tween80 and administered orally at a concentration of 10 mg/kg daily for 21 days. […] LX-5411 was mixed in 5% PBS and administered orally at a concentration of 10 mg/kg daily for 21 days or administered to the skin, joints, or eyes at a concentration of 3 μM. LX-5701 was mixed in PBS and administered orally at a concentration of 360 mg/kg daily for 21 days. LX-6807 was mixed in saline and administered intraperitoneally at a concentration of 1 mg/kg daily for 21 days. LX-2101 or LX-2102 was mixed in PBS solution with 5% DMSO and administered intraperitoneally at a concentration of 20 mg/kg or 10 mg/kg, respectively, daily for 21 days. […]
Mice were sacrificed and evaluated using the same method as in Example 7-4 of WO2023-085787 A1. […]

[4] = test system: cigarette smoke-induced COPD C57BL6J mice; assay: Cigarette smoke COPD in mice (p16, IL6 mRNA, alveoli size), Example 25, Table 49; assay type: in vivo, mouse; conditions: for Airspace enlargement: average size of alveoli, untreated 38.7 (±0.6); for IL6 mRNA / p16 mRNA: lung, daily for 21 days, untreated 100%
Method: Eight-week-old male C57BL6J mice (KRIBB Laboratory Animal Resource Center) were acclimated to the experimental environment for one week. After exposure to standard cigarette smoke (costa monitoring cigarette 7) for 5 hours per day, 5 days per week for 6 months, chronic obstructive pulmonary disease (COPD) was induced. Mice with induced COPD were randomly assigned to experimental and control groups. […] LX-3002 was mixed in distilled water with 4% DMSO, 30% PEG300, 5% tween80 and administered orally at a concentration of 10 mg/kg daily for 21 days. LX-5701 was mixed in PBS and administered orally at a concentration of 360 mg/kg daily for 21 days. LX-6807 was mixed in saline and administered intraperitoneally at a concentration of 1 mg/kg daily for 21 days. The control group received only the solution in the same volume. After the end of drug administration, mice were sacrificed in the same manner as in Example 7-2 of WO2023-085787 A1, RNA was extracted from lung tissue, and qRT-PCR (quantitative real-time PCR) was performed and analyzed using the synthesized cDNA. […] The amount of mRNA after aging was calculated as 100%, and the results after treatment with the test compound were compared. Furthermore, paraffin sections were stained with hematoxylin/eosin (H/E), and the size of alveoli was measured under a light microscope to assess the degree of lung function impairment.

[5] = test system: senescent cells; assay: Viability of senescent cells (CellTiter-Glo), Example 17, Table 13; conditions: Homo sapiens, read-out: Survival (%)
Method: Cells induced to undergo senescence by doxorubicin treatment were treated with test compound at designated concentrations and measured using the CellTiter-Glo Luminescent Cell Viability Assay (Promega).

Compound | Lung p16 mRNA [1] | Col1a1 mRNA [1] | Liver p16 mRNA [2] | Col1a1 mRNA [2] | Lipofuscin (staining area) [3] | Airspace enlargement [4] | IL6 mRNA [4] | p16 mRNA [4] | viability at 1.1 µM [5] [%] | viability at 10 µM [5] [%] | viability at 30 µM [5] [%]
O=C(C(C[N+](=O)[O-])=NO)N1CCN(C(c2ccc(Cl)cc2)c2ccc(Cl)cc2)CC1 [LX-403] | 32 (±1.4) % | 44 (±3.1) % | 51 (±3.8) % | 48 (±5.8) % |  |  |  |  |  |  | 
S=C(N/N=C1\CCCc2cccnc21)N1CCN(c2ccccn2)CC1 [LX-801] | 48 (±4.8) % | 43 (±10.6) % | 57 (±9.3) % | 63 (±11.5) % |  |  |  |  |  |  | 
C[C@@H]1CC[C@@]23C[C@H](O)C(=O)[C@@]2(O)[C@]1(C)[C@H](OC(=O)CCl)C[C@@H](C1=CCn2c(=O)n(-c4ccccc4)c(=O)n2C1)[C@@H]3C [LX-1801, (2S,3aS,4S,5R,7R,8S,8aS,11R)-7-(1,3-Dioxo-2-phenyl-2,3,5,8-tetrahydro-1H-[1,2,4]triazolo[1,2-a]pyridazin-6-yl)-2,3a-dihydroxy-4,8,11-trimethyl-3-oxooctahydro-1H-4,8a-propanoazulen-5-yl 2-Chloroacetate] | 53 (±13.7) % | 38 (±20.8) % | 55 (±9.8) % | 58 (±7.9) % |  |  |  |  |  |  | 
CC1(C)CC[C@]2(NC(=O)C(C)(F)F)CC[C@]3(C)[C@H](C(=O)C=C4[C@@]5(C)C=C(C#N)C(=O)C(C)(C)[C@@H]5CC[C@]43C)[C@@H]2C1 [LX-2101, Omaveloxolone] |  |  |  |  | 64 (±11.6) % |  |  |  |  |  | 
COC(=O)[C@]12CCC(C)(C)C[C@H]1[C@H]1C(=O)C=C3[C@@]4(C)C=C(C#N)C(=O)C(C)(C)[C@@H]4CC[C@@]3(C)[C@]1(C)CC2 [LX-2102, Bardoxolone methyl] |  |  |  |  | 71 (±8.1) % |  |  |  |  |  | 
CCCC\C=C/C=C/C=C\CCCCCCCC(=O)O [LX-2707, Punicic acid] |  |  |  |  |  | 36.4 (±1.9) μm | 76 (±6.7) % | 78 (±5.5) % |  |  | 
COC(=O)[C@H]1Cc2c([nH]c3ccccc23)[C@H](c2ccc(S(C)(=O)=O)cc2)N1C(=O)CCl [LX-5401, methyl (1S,3R)-2-(2-chloroacetyl)-1-(4-(methylsulfonyl)phenyl)-2,3,4,9-tetrahydro-1H-pyrido[3,4-b]indole-3-carboxylate] | 67 (±8.1) % | 59 (±12.8) % | 61 (±13.2) % | 72 (±5.9) % |  |  |  |  | 99.5 | 66 | 24.6
C#CC(=O)N1[C@@H](CCCC)Cc2cc(OC)ccc2[C@@H]1c1ccc(NC23CC4CC(CC(C4)C2)C3)cc1 [LX-5411] | 61 (±13.2) % | 44 (±11.1) % | 53 (±9.9) % | 43 (±16.1) % |  |  |  |  | 75.4 | 2.8 | 
O=C1C2CCN(CC2)C1CNC(=O)C(F)(F)F (stereo not drawn) [LX-5701] |  |  |  |  | 69 (±10.8) % | 31.9 (±2.4) μm | 59 (±16.8) % | 70 (±7.8) % | 91.4 | 19.3 | 
Cc1cccc([C@H](C)c2cnc[nH]2)c1C [LX-6807, Dexmedetomidine] |  |  |  |  |  | 30.4 (±1.5) μm | 48 (±5.6) % | 68 (±2.4) % | 95.1 | 42.5 | 6.9
Tocofersolan [LX-3001] |  |  |  |  |  | 37.1 (±2.7) μm | 79 (±9.9) % | 83 (±5.0) % |  |  | 
